The results in this text go back to US9169254B2, “Spiroimidazolone derivative” (Chugai Seiyaku Kabushiki Kaisha, priority 2009, dated 2015).

This assay addresses T1, human PTH1 receptor (Homo sapiens, UniProt Q03431).
T1 sequence (Q03431 27-593): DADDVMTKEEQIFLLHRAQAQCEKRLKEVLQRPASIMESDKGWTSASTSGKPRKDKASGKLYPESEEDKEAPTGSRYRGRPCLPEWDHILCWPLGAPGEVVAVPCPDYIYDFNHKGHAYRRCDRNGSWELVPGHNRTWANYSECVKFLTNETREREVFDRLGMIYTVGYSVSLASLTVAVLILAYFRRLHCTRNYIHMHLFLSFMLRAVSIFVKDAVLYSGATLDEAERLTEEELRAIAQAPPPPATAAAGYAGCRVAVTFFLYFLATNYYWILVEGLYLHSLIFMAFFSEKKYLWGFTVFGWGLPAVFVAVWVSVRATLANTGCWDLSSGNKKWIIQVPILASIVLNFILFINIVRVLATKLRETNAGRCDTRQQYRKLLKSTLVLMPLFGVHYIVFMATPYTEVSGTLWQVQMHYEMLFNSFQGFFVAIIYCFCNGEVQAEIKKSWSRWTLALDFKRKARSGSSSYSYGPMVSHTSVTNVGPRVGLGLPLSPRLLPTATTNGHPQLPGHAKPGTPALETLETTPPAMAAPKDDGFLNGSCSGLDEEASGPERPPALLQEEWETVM
The assay can be described thus: In vitro cAMP signal activity in HKRK-B7 cells (LLC-PK1 cells overexpressing the human PTH1 receptor). As to conditions: HKRK-B7 cells; compound at 1×10^−3 M; cAMP produced as percentage of that produced by hPTH(1-34) at 100 nM. In kind it is cell-based.
As to `CCOc1cc(NC(C)=O)ccc1/C=C/S(=O)(=O)N1CCC2(CC1)N=C(C1CCC(C)CC1)NC2=O` (stereo not drawn) [Compound 509, N-(3-ethoxy-4-{(E)-2-[2-(4-methyl-cyclohexyl)-4-oxo-1,3,8-triaza-spiro[4.5]dec-1-ene-8-sulfonyl]-vinyl}-phenyl)-acetamide], the “cAMP production activity (%)” value worked out at 70%.
For `COc1cccc(CCS(=O)(=O)N2CCC3(CC2)N=C([C@H]2CC[C@H](C)CC2)NC3=O)c1C` [Compound 668, 8-[2-(3-Methoxy-2-methyl-phenyl)-ethanesulfonyl]-2-(4-methyl-cyclohexyl)-1,3,8-triaza-spiro[4.5]dec-1-en-4-one] the value was 40%; for `Cc1cc(N(C)C(N)=O)cc(C)c1/C=C/[S@TB3](=O)(=O)N1CCC2(CC1)N=C(CCCC/C=C/c1ccccc1)NC2=O` [Compound 1120, 1-(3,5-dimethyl-4-{(E)-2-[4-oxo-2-((E)-6-phenyl-hex-5-enyl)-1,3,8-triaza-spiro[4.5]dec-1-ene-8-sulfonyl]-vinyl}-phenyl)-1-methyl-urea], 124%; for `Cc1cc(C(=O)N2CCC(C)(O)CC2)cc(C)c1/C=C/S(=O)(=O)N1CCC2(CC1)N=C(c1cccc(C(F)(F)C(F)(F)F)c1)NC2=O` [Compound 1196, 8-{(E)-2-[4-(4-hydroxy-4-methyl-piperidine-1-carbonyl)-2,6-dimethyl-phenyl]-ethenesulfonyl}-2-(3-pentafluoroethyl-phenyl)-1,3,8-triaza-spiro[4.5]dec-1-en-4-one], 76%.
Under `Cc1cc(C2=NC3(CCN([S@TB17](=O)(=O)/C=C/c4c(C)cc(C(=O)N5CCC(C)(O)CC5)cc4C)CC3)C(=O)N2)ccc1F` [Compound 1098, 2-(4-fluoro-3-methyl-phenyl)-8-{(E)-2-[4-(4-hydroxy-4-methyl-piperidine-1-carbonyl)-2,6-dimethyl-phenyl]-ethenesulfonyl}-1,3,8-triaza-spiro[4.5]dec-1-en-4-one] stands 88%; under `CNc1cc(C)c(CCS(=O)(=O)N2CCC3(CC2)N=C(c2cccc(SC(F)(F)F)c2)NC3=O)c(C)c1` [Compound 1036, 8-[2-(2,6-dimethyl-4-methylamino-phenyl)-ethanesulfonyl]-2-(3-trifluoromethylsulfanyl-phenyl)-1,3,8-triaza-spiro[4.5]dec-1-en-4-one], 82%; under `Cc1cc(N(C)C(N)=O)cc(C)c1/C=C/S(=O)(=O)N1CCC2(CC1)N=C(c1ccc(CCCC(F)(F)F)cc1)NC2=O` [Compound 1088, 1-[3,5-Dimethyl-4-((E)-2-{4-oxo-2-[4-(4,4,4-trifluoro-butyl)-phenyl]-1,3,8-triaza-spiro[4.5]dec-1-ene-8-sulfonyl}-vinyl)-phenyl]-1-methyl-urea], 95%.
Under `COC(=O)Cn1ccc2c(/C=C/S(=O)(=O)N3CCC4(CC3)N=C(C3CCCCC3)NC4=O)cccc21` [Compound 476, {4-[(E)-2-(2-cyclohexyl-4-oxo-1,3,8-triaza-spiro[4.5]dec-1-ene-8-sulfonyl)-vinyl]-indol-1-yl}-acetic acid methyl ester] stands 61%; under `CC(=O)Nc1ccc(CCS(=O)(=O)N2CCC3(CC2)N=C(C2CCC(C(F)(F)F)CC2)NC3=O)c(C)c1` (stereo not drawn) [Compound 904, N-(3-methyl-4-{2-[4-oxo-2-(4-trifluoromethyl-cyclohexyl)-1,3,8-triaza-spiro[4.5]dec-1-ene-8-sulfonyl]-ethyl}-phenyl)-acetamide], 69%.
On to `Cc1cc(C(=O)N2CCC[C@H]2C(N)=O)ccc1CCS(=O)(=O)N1CCC2(CC1)N=C(c1cccc(C(F)(F)F)c1)NC2=O` [Compound 367, (S)-1-(3-methyl-4-{2-[4-oxo-2-(3-trifluoromethyl-phenyl)-1,3,8-triaza-spiro[4.5]dec-1-ene-8-sulfonyl]-ethyl}-benzoyl)-pyrrolidine-2-carboxylic acid amide], for which the “cAMP production activity (%)” value turned out to be 50%.
Under `Cc1cc(C(=O)N(C)C)ccc1CCS(=O)(=O)N1CCC2(CC1)N=C(c1ccc(F)c(Cl)c1)NC2=O` [Compound 89, 4-{2-[2-(3-chloro-4-fluoro-phenyl)-4-oxo-1,3,8-triaza-spiro[4.5]dec-1-ene-8-sulfonyl]-ethyl}-3,N,N-trimethyl-benzamide] stands 96%.
Under `Cc1cc(N(C)C(N)=O)cc(C)c1CCS(=O)(=O)N1CCC2(CC1)N=C(CCCCCCCCCC(=O)O)NC2=O` [Compound 1362, 10-(8-{2-[2,6-dimethyl-4-(1-methyl-ureido)-phenyl]-ethanesulfonyl}-4-oxo-1,3,8-triaza-spiro[4.5]dec-1-en-2-yl)-decanoic acid] stands 48%; under `Cc1cc(N2CCOCC2=O)cc(C)c1/C=C/S(=O)(=O)N1CCC2(CC1)N=C(C1CCC(CCC(F)(F)F)CC1)NC2=O` (stereo not drawn) [Compound 550, 8-{(E)-2-[2,6-dimethyl-4-(3-oxo-morpholin-4-yl)-phenyl]-ethenesulfonyl}-2-[4-(3,3,3-trifluoro-propyl)-cyclohexyl]-1,3,8-triaza-spiro[4.5]dec-1-en-4-one], 124%.
Under `CNc1cc(C)c(CCS(=O)(=O)N2CCC3(CC2)N=C(CCCCCCCC(F)(F)C(F)(F)F)NC3=O)c(C)c1` [Compound 1035, 8-[2-(2,6-Dimethyl-4-methylamino-phenyl)-ethanesulfonyl]-2-(8,8,9,9,9-pentafluoro-nonyl)-1,3,8-triaza-spiro[4.5]dec-1-en-4-one] stands 77%.
With `CCCCCCCCCC1=NC2(CCN(S(=O)(=O)CCc3ccc(N4C(=O)CC[C@H]4CO)cc3C)CC2)C(=O)N1` [Compound 670, 8-{2-[4-((S)-2-Hydroxymethyl-5-oxo-pyrrolidin-1-yl)-2-methyl-phenyl]-ethanesulfonyl}-2-nonyl-1,3,8-triaza-spiro[4.5]dec-1-en-4-one], the “cAMP production activity (%)” value is 123%.
Under `Cc1cc2ccc1CCS(=O)(=O)N1CCC3(CC1)N=C(NC3=O)c1cc(cc(C(F)(F)F)c1)OCC/C=C\CCCCCN(C)C2=O` [Compound 1414] stands 47%; under `O=C1NC(C2CCCCC2)=NC12CCN(S(=O)(=O)CCCc1cccc(O)c1)CC2` [Compound 317, 2-cyclohexyl-8-[3-(3-hydroxy-phenyl)-propane-1-sulfonyl]-1,3,8-triaza-spiro[4.5]dec-1-en-4-one], 62%.
Under `CCC1CCC(C2=NC3(CCN(S(=O)(=O)CCc4ccc(C(=O)N5CCN(CCF)CC5)cc4C)CC3)C(=O)N2)CC1` (stereo not drawn) [Compound 975, 2-(4-Ethyl-cyclohexyl)-8-(2-{4-[4-(2-fluoro-ethyl)-piperazine-1-carbonyl]-2-methyl-phenyl}-ethanesulfonyl)-1,3,8-triaza-spiro[4.5]dec-1-en-4-one] stands 74%.
Under `Cc1cc(CNC(N)=O)cc(C)c1CCS(=O)(=O)N1CCC2(CC1)N=C(C1CCC(C)CC1)NC2=O` (stereo not drawn) [Compound 1314, (3,5-dimethyl-4-{2-[2-(4-methyl-cyclohexyl)-4-oxo-1,3,8-triaza-spiro[4.5]dec-1-ene-8-sulfonyl]-ethyl}-benzyl)-urea] stands 78%.
`Cc1cc(N(C)C(N)=O)cc(C)c1CCS(=O)(=O)N1CCC2(CC1)N=C(CCCCCCCCCN)NC2=O` [Compound 1324, 1-(4-{2-[2-(9-Amino-nonyl)-4-oxo-1,3,8-triaza-spiro[4.5]dec-1-ene-8-sulfonyl]-ethyl}-3,5-dimethyl-phenyl)-1-methyl-urea]: the “cAMP production activity (%)” value is 1.0%.
Under `Cc1cc(N(C)C(N)=O)cc(C)c1CCS(=O)(=O)N1CCC2(CC1)N=C(CCCCCCCCC1(C)COC1)NC2=O` [Compound 1031, 1-[3,5-Dimethyl-4-(2-{2-[8-(3-methyl-oxetan-3-yl)-octyl]-4-oxo-1,3,8-triaza-spiro[4.5]dec-1-ene-8-sulfonyl}-ethyl)-phenyl]-1-methyl-urea] stands 111%; under `CCCCCCCCCC1=NC2(CCN(S(=O)(=O)CCc3c(C)cc(C(=O)N4CCC4)cc3C)CC2)C(=O)N1` [Compound 982, 8-{2-[4-(azetidine-1-carbonyl)-2,6-dimethyl-phenyl]-ethanesulfonyl}-2-nonyl-1,3,8-triaza-spiro[4.5]dec-1-en-4-one], 96%; under `CC(C)(C)CCN1CCCC(C2=NC3(CCN(S(=O)(=O)c4cccc(Cl)c4)CC3)C(=O)N2)C1` (stereo not drawn) [Compound 453, 8-(3-Chloro-benzenesulfonyl)-2-[1-(3,3-dimethyl-butyl)-piperidin-3-yl]-1,3,8-triaza-spiro[4.5]dec-1-en-4-one], 16%.
As for `Cc1cc(NS(=O)(=O)NCCCO)ccc1/C=C/S(=O)(=O)N1CCC2(CC1)N=C(c1cccc(OC(F)(F)F)c1)NC2=O` [Compound 743, N-(3-Hydroxy-propyl)-N′-(3-methyl-4-{(E)-2-[4-oxo-2-(3-trifluoromethoxy-phenyl)-1,3,8-triaza-spiro[4.5]dec-1-ene-8-sulfonyl]-vinyl}-phenyl)-sulfamide], the “cAMP production activity (%)” value is recorded as 54%.
